Patent US9289517B2 (COMMISSARIAT A L'ENERGIE ATOMIQUE ET AUX ENERGIES …, priority 2008, dated 2016)

Tests used:
[1] = prior-art statement; tissue autofluorescence typically 0.3-0.4 ns; cited from earlier work
[2] = Fluorescence level measured under optical device (capillaries); conditions: approximately 25 minutes after first measurement; 2.5 nmoles ICG in water, 0.5 nmoles as nanoemulsions
[3] = Fluorescence quantum yield F; format: physicochemical; conditions: directly, 10 and 40 days after dialysis
[4] = Behaviour in isotonic medium (154 mM sodium chloride); format: physicochemical

## indocyanine green [ICG]
[1]
  fluorescence lifetime of ICG: 0.5 ns
[2]
  fluorescence level over time: reduction over time of the fluorescence level
[3]
  stability of quantum yield over time: the quantum yield remains stable over time, unlike that of free ICG in water
[4]
  behaviour in isotonic medium: flocculates
